Experimental data published in patent US8436039B2, “Inhibitors of the ATB(0,+) transporter and uses thereof” (Georgia Health Sciences University Research Institute, Inc., priority 2008, dated 2013).

Key:
ATB^0,+ in MCF7 cells = target: T1, ATB^0,+ in MCF7 cells (Homo sapiens, UniProt Q9UN76); assay: D-serine uptake in MCF7 cells (constitutively expressed ATB^0,+); assay type: cell-based; conditions: for IC50: D-serine 5 μM, NaCl, read-out: IC50 for inhibition of D-serine uptake
T1 construct: host or cells: MCF7
T1 sequence (Q9UN76 1-642): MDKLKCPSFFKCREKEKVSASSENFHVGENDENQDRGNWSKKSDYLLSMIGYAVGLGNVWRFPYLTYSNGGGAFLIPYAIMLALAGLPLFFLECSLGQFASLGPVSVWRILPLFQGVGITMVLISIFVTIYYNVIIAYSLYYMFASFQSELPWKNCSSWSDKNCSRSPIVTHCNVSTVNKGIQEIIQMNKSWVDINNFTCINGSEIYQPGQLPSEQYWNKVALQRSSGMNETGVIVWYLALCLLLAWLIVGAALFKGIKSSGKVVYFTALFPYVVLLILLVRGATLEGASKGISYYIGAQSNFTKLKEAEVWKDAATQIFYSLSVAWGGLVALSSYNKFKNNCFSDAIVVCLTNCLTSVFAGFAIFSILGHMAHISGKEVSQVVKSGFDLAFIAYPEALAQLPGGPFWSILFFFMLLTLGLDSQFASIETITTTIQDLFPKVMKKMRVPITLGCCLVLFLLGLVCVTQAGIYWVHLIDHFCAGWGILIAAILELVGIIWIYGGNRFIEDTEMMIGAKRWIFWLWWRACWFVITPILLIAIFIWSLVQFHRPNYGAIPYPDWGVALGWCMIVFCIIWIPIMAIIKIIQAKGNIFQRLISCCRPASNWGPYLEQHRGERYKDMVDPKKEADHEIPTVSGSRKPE
Experimental: Cells were seeded and grown in 24-well culture plates to confluency and used for uptake measurements. Radiolabelled glycine or D-serine was used as the substrate to determine the transport function of ATB^0,+. Uptake measurements were routinely made in an NaCl-containing buffer (25 mM Hepes/Tris buffer, pH 7.4, 140 mM NaCl, 5.4 mM KCl, 1.8 mM CaCl2, 0.8 mM MgSO4 and 5 mM glucose). Ion dependence of the transport process was evaluated by studying the uptake activity in buffers of varying compositions. NaCl in the uptake buffer was replaced iso-osmotically with NMDG (N-methyl-D-glucamine) chloride to prepare an Na^+-free buffer, and with sodium gluconate to prepare a Cl^−-free buffer. Linear uptake rates were determined by employing a 10 min incubation period, based on time course experiments. Na^+-activation kinetics was analysed by studying the uptake rates in the presence of varying concentrations of Na^+ (2.5-140 mM) in the uptake buffer with Cl^− concentration kept constant at 140 mM. This was done by replacing NaCl with appropriate concentrations of NMDG. Cl^−-activation kinetics was analysed by studying the uptake rates in the presence of varying concentrations of Cl^− (2.5-100 mM) in the uptake buffer with Na^+ concentration kept constant at 140 mM. This was done by replacing NaCl with appropriate concentrations of sodium gluconate. Uptake data for Na^+- and Cl^−-activation kinetics were analysed using the Hill equation, and values for K0.5 for Na^+ and Cl^− and for the Hill coefficient (h) were determined by linear and non-linear regression methods. A commercially available software program (Sigma Plot, version 6.0; SPSS) was used for this purpose. Substrate specificity of the uptake process was evaluated by monitoring the effects of unlabelled amino acids (5 mM) on the uptake of radiolabelled glycine or D-serine (5 μM: radiolabelled substrate, 0.05 μM; unlabelled substrate, 4.95 μM).
The kinetic nature of inhibition of D-serine uptake by α-methyl-DL-tryptophan was investigated in MCF7 cells by monitoring the uptake at increasing concentrations of D-serine (range, 50-2000 μM) in the absence and presence of 100 μM α-methyl-DL-tryptophan. The kinetic parameters were calculated by linear regression (Eadie-Hofstee plots) and the values were confirmed by non-linear regression.
We employed a similar experimental strategy to detect specifically the transport function of ATB^0,+ in the remaining seven cell lines. […] We also investigated the effect of α-methyl-DL-tryptophan on D-serine uptake in MCF7 cells.

human LAT1/4F2hc = human LAT1/4F2hc (Homo sapiens, UniProt Q01650); assay: Inhibition of LAT1 transport function: L-valine uptake in HRPE cells co-expressing human LAT1 and human 4F2hc; assay type: cell-based; conditions: for effect on cDNA-induced valine uptake: 1 mM, L-[14C]valine 0.75 μM, 5 min
Sequence of human LAT1/4F2hc (Q01650 whole entry): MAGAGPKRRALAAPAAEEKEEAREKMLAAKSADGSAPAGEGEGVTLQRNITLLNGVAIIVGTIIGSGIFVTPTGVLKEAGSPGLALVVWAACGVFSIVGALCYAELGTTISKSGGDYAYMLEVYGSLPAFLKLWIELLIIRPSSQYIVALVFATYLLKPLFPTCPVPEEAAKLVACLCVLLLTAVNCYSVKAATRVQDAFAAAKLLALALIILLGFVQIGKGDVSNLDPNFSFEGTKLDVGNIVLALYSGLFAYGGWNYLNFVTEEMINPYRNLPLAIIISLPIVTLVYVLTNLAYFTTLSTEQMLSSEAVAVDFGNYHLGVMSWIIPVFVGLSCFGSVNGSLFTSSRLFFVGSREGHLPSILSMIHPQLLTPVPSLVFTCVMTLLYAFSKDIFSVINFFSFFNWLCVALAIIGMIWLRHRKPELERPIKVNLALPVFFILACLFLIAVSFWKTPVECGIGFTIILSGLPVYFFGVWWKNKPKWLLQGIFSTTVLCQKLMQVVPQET
Sequence of human LAT1/4F2hc (P08195 102-630 partner): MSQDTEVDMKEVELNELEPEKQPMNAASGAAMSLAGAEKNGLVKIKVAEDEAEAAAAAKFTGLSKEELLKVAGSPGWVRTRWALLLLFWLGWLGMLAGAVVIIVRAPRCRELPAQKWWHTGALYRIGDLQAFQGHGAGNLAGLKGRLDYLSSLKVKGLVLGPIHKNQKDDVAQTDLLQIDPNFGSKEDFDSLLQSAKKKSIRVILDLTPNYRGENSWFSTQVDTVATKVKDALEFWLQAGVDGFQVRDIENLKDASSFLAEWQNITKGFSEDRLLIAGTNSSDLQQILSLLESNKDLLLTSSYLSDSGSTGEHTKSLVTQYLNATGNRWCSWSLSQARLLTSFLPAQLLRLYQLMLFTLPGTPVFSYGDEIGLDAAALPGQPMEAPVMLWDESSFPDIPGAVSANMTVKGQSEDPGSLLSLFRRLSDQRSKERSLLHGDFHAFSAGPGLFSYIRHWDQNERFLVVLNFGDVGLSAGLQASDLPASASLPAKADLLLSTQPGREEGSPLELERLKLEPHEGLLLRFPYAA

[1] = α-methyl-DL-tryptophan 100 μM, MCF7 cells

| SMILES | IC50 (ATB^0,+ in MCF7 cells; MCF7 cells) | effect on cDNA-induced valine uptake (human LAT1/4F2hc) | kinetic nature of inhibition of D-serine uptake (ATB^0,+ in MCF7 cells; 100 μM blocker, D-serine 50-2000 μM, Eadie-Hofstee) | Kt for D-serine uptake in the presence of blocker (ATB^0,+ in MCF7 cells; [1]) | Vmax for D-serine uptake in the presence of blocker (ATB^0,+ in MCF7 cells; [1]) | type of inhibition of LAT1 (human LAT1/4F2hc) | IC50 of L-isomer lower compared with D-isomer (ATB^0,+ in MCF7 cells; D-serine uptake, MCF7 cells) |
| --- | --- | --- | --- | --- | --- | --- | --- |
| Cn1cc(CC(N)C(=O)O)c2ccccc21 (racemic) [1-methyl-DL-tryptophan] | 221 ± 40 µM | abolished completely | – | – | – | – | – |
| CC(N)(Cc1c[nH]c2ccccc12)C(=O)O (racemic) [α-methyl-DL-tryptophan] | – | abolished completely | competitive | 869 ± 52 µM | 33.3±1.4 nmol/mg of protein per 15 min | competitive inhibitor | – |
| Cn1cc(C[C@@H](N)C(=O)O)c2ccccc21 [1-methyl-D-tryptophan] | 1580 ± 180 µM | – | – | – | – | – | – |
| Cn1cc(C[C@H](N)C(=O)O)c2ccccc21 [1-methyl-L-tryptophan] | 86 ± 11 µM | abolished completely | – | – | – | – | at least 15 fold |
